Measured values reported in patent US6709840B1, “Anergy associated genes” (The Board of Trustees of the Leland Stanford Junior …, priority 2000, dated 2004).

B1: IL-2: murine rIL-2 (Genzyme), 5 Units/ml during restimulation (protein, UniProt P04351 21-169, looked up)
Interleukin-2: APTSSSTSSSTAEAQQQQQQQQQQQQHLEQLLMDLQELLSRMENYRNLKLPRMLTFKFYLPKQATELKDLQCLEDELGPLRHVLDLTQSKSFQLEDAENFISNIRVTVVKLKGSDNTFECQFDDESATVVDFLRRWIAFCQSIISTSPQ

What was measured:
Assay type in all cases: cell-based, murine
[1] = tested on: IL-2 mRNA in 11.3.7 T cells; test: Real-time quantitative PCR of IL-2 message; settings: 4 hours ionomycin vs PMA and ionomycin (100%)
Experimental: (§1) “Real-time” Quantitative PCR. Total RNA was isolated as described above and 0.5 μg was reversed transcribed using the TaqMan reverse transcription reagent kit (PE Applied Biosystems) according to recommended protocols. Subsequently, 1 μl aliquots of cDNA (equivalent to 5 ng of input RNA) were amplified in separate reactions with primer pairs and fluorescent probe sets specific for GAPDH (to generate a standard curve to control for input cDNA amounts) and for target mRNAs identified in the differential display screen. Resting, activated and anergic RNA samples were also amplified using specific primers and a probe for IL-2. Standard cycling conditions and PCR protocols were used for the ABI PRISM 7700 Sequence Detection System (PE Applied Biosystems). […]
(§2) Using the relative standard curve method described in protocols provided by ABI, changes in target RNA expression for the different ddPCR cDNA clones and IL-2 were calculated as fold increases over resting cells. To control for input RNA amounts, the relative amount of GAPDH RNA was determined for each sample (resting, anergic, and activated) from a standard curve generated for GAPDH. […] Standard curves for both target genes and GAPDH were determined by quantitative PCR reactions using serial dilutions of known amounts of cDNA or plasmids containing relevant inserts.

[2] = tested on: 19.9.6-3 (Nurr2) mRNA in 11.3.7 T cells; test: Real-time quantitative PCR of ddPCR clone 19.9.6-3
Experimental: as §1, §2

[3] = tested on: A9.5.7-4 (cbl-b) mRNA in 11.3.7 T cells; test: Real-time quantitative PCR of ddPCR clone A9.5.7-4
Experimental: as §1, §2

11.3.7 T cells = test: Anergy assay: proliferation on restimulation (3H-Thymidine)
Experimental: Anergy Assays. Resting 11.3.7 T cells were purified on a Lympholyte M (Cedarlane Labs) gradient and washed three times with 1×PBS. Costimulatory incompetent APCs, (B7 negative RT 7.7 fibroblasts), were irradiated at 3000 rads prior to use in antigen-induced anergy cultures. 6×10^6 T cells were mixed with 6×10^6 B7 negative RT7.7 APCs in 20 mls of culture media. […] For ionomycin-induced anergy, 2×10^6 11.3.7 T cells were incubated with 1.5 μM ionomycin (Calbiochem). For full activation, 1 μg/ml PMA was added to the cultures.
At selected time intervals, aliquots of both cultures were harvested, pelleted, and washed twice before adding 10 μl of anti-CD4 microbeads (Millenyl Biotech) to separate CD4+ T cells from the RT 7.7 fibroblast APCs, according to the manufacturer's protocol. As determined by flow cytometry, greater than 95% purity was routinely achieved. To test for the anergic phenotype, 50×10^4 T cells/well were then cultured with irradiated DBA/2 splenocytes and various concentrations of peptide in a 96 well plate. In selected cultures, murine rIL-2 (Genzyme) was added at 5 Units/ml during the restimulation period, to test the viability of the anergized T cells. After 48 hours of culture, the cells were pulsed for 18 hours with 3H-Thymidine, then harvested and counted.

[4] = tested on: 9.3.1-2 (MRC-OX44) mRNA in 11.3.7 T cells; test: Real-time quantitative PCR of ddPCR clone 9.3.1-2
Experimental: as §1, §2

[5] = tested on: 6.5.2-4 (lymphotactin) mRNA in 11.3.7 T cells; test: Real-time quantitative PCR of ddPCR clone 6.5.2-4
Experimental: as §1, §2

[6] = tested on: 1-4 (GRAIL) mRNA in 11.3.7 T cells; test: Real-time quantitative PCR of ddPCR clone 1-4
Experimental: as §1, §2

[7] = fold over resting T cells (1.0), GAPDH normalized
[8] = ionomycin-induced anergy (ion vs PMA/ion)

Molecule | IL-2 mRNA level relative to activated cells [1] | 19.9.6-3 mRNA expression, Anergic + ion [2, 7] | 19.9.6-3 anergic:activated ratio [2, 8] | A9.5.7-4 mRNA expression, Anergic + ion [3, 7] | A9.5.7-4 anergic:activated ratio [3, 8] | ionomycin-induced anergy (11.3.7 T cells; 1.5 μM ionomycin, 6 hours incubation) | induction of functional unresponsiveness (11.3.7 T cells; 1.5 μM ionomycin, one hour incubation) | 9.3.1-2 mRNA expression, Anergic + ion [4, 7] | 9.3.1-2 anergic:activated ratio [4, 8] | 6.5.2-4 mRNA expression, Anergic + ion [5, 7] | 6.5.2-4 anergic:activated ratio [5, 8] | 1-4 mRNA expression, Anergic + ion [6, 7] | 1-4 anergic:activated ratio [6, 8] | proliferative response of anergized T cells with IL-2 added (11.3.7 T cells; antigen-induced anergy, rIL-2 5 Units/ml during restimulation) | unresponsiveness with IL-2 added to restimulation cultures (11.3.7 T cells; ionomycin-induced anergy, rIL-2 5 Units/ml during restimulation)
C[C@H](CCC(=O)O)C[C@H](C)C[C@H](C)C(=O)/C=C(\O)[C@H](C)C[C@H](C)C/C=C/[C@@H](C)[C@@H](O)[C@@H](C)[C@@H](O)C[C@@H]1CC[C@@](C)([C@H]2CC[C@@](C)([C@@H](C)O)O2)O1 [Ionomycin, ionomycin] | ≤ 0.5% | 21.7 fold | 1.1 fold | 11.0 fold | 1.4 fold | complete | did not induce a state of functional unresponsiveness | 10.2 fold | 0.71 fold | 153 fold | 0.84 fold | 4.0 fold | 3.3 fold | – | –
B1 | – | – | – | – | – | – | – | – | – | – | – | – | – | induced as strong a proliferative response in the anergized T cells as it did in the resting, control T cells | overcome
